Measured values reported in patent publication US10167262B2, “Herbicidal substituted 3-arylpyrazoles” (FMC CORPORATION, priority 2014, dated 2019).
Read-outs that look alike come from different tables or passages of the source.

Assays:
Assay type in all cases: in vivo
kochia (Kochia scoparia) = experiment: Test C postemergence greenhouse test, plant response rating 0-100; conditions: Bassia scoparia, post-emergence
How it was run: (§1)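 Visual rating vs. controls, 0 (no effect) to 100 (complete control), 13–15 d after postemergence treatment. Potted plants, 1- to 4-leaf stage (2–18 cm), greenhouse-held.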

[1] = system: chickweed (common chickweed, Stellaria media); experiment: as above; conditions: Stellaria media, post-emergence
How it was run: as §1

wild oat (Avena fatua) = experiment: as above; conditions: Avena fatua, post-emergence
How it was run: as §1

[2] = system: galium (catchweed bedstraw, Galium aparine); experiment: Test C pre-/postemergence greenhouse test, plant response rating 0-100; conditions: Galium; for pest or weed control at 62 g/ha: 62 g ai/ha; for pest or weed control at 125 g/ha: 125 g ai/ha; for pest or weed control at 250 g/ha: 250 g ai/ha; for pest or weed control at 500 g/ha: 500 g ai/ha
How it was run: (§2)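 Plants were treated either at seeding (soil of loam and sand) or as 2–18 cm seedlings in a sphagnum peat mix, using test chemicals in a surfactant-containing non-phytotoxic solvent. Visual assessment relative to controls followed 13–15 days later.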

[3] = system: blackgrass (Alopecurus myosuroides); experiment: as above; conditions: Alopecurus myosuroides; for pest or weed control at 62 g/ha: 62 g ai/ha; for pest or weed control at 125 g/ha: 125 g ai/ha; for pest or weed control at 250 g/ha: 250 g ai/ha; for pest or weed control at 500 g/ha: 500 g ai/ha
How it was run: as §2

[4] = system: lambsquarters (Chenopodium album); experiment: as above; conditions: Chenopodium album; for pest or weed control at 62 g/ha: 62 g ai/ha; for pest or weed control at 125 g/ha: 125 g ai/ha; for pest or weed control at 250 g/ha: 250 g ai/ha; for pest or weed control at 500 g/ha: 500 g ai/ha
How it was run: as §2

[5] = system: large (Lg) crabgrass (Digitaria sanguinalis); experiment: as above; conditions: Digitaria sanguinalis; for pest or weed control at 62 g/ha: 62 g ai/ha; for pest or weed control at 125 g/ha: 125 g ai/ha; for pest or weed control at 250 g/ha: 250 g ai/ha; for pest or weed control at 500 g/ha: 500 g ai/ha
How it was run: as §2

soybean (Glycine max) = experiment: as above; conditions: Glycine max; for plant injury at 62 g/ha: 62 g ai/ha; for plant injury at 125 g/ha: 125 g ai/ha; for plant injury at 250 g/ha: 250 g ai/ha; for plant injury at 500 g/ha: 500 g ai/ha
How it was run: as §2

[6] = system: johnsongrass (Sorghum halepense); experiment: as above; conditions: Sorghum halepense; for pest or weed control at 62 g/ha: 62 g ai/ha; for pest or weed control at 125 g/ha: 125 g ai/ha; for pest or weed control at 250 g/ha: 250 g ai/ha; for pest or weed control at 500 g/ha: 500 g ai/ha
How it was run: as §2

[7] = system: giant foxtail (Setaria faberii); experiment: as above; conditions: Setaria faberi; for pest or weed control at 62 g/ha: 62 g ai/ha; for pest or weed control at 125 g/ha: 125 g ai/ha; for pest or weed control at 250 g/ha: 250 g ai/ha; for pest or weed control at 500 g/ha: 500 g ai/ha
How it was run: as §2

[8] = system: morningglory (Ipomoea coccinea); experiment: as above; conditions: Ipomoea; for pest or weed control at 62 g/ha: 62 g ai/ha; for pest or weed control at 125 g/ha: 125 g ai/ha; for pest or weed control at 250 g/ha: 250 g ai/ha; for pest or weed control at 500 g/ha: 500 g ai/ha
How it was run: as §2

[9] = system: winter wheat (Triticum aestivum); experiment: as above; conditions: Triticum aestivum; for plant injury at 62 g/ha: 62 g ai/ha; for plant injury at 125 g/ha: 125 g ai/ha; for plant injury at 250 g/ha: 250 g ai/ha; for plant injury at 500 g/ha: 500 g ai/ha
How it was run: as §2

[10] = system: yellow nutsedge (Cyperus esculentus); experiment: as above; conditions: Cyperus; for pest or weed control at 62 g/ha: 62 g ai/ha; for pest or weed control at 125 g/ha: 125 g ai/ha; for pest or weed control at 250 g/ha: 250 g ai/ha; for pest or weed control at 500 g/ha: 500 g ai/ha
How it was run: as §2

[11] = post-emergence, Postemergence, read-out: Plant response rating (0 to 100), Galium
[12] = post-emergence, Postemergence, scale 0 to 100
[13] = pre-emergence, Preemergence, read-out: Plant response rating, Galium
[14] = pre-emergence, Preemergence, read-out: Plant response rating, Blackgrass
[15] = post-emergence, Postemergence, read-out: Plant response rating (0 to 100), Lambsquarters
[16] = pre-emergence, Preemergence, read-out: Plant response rating, Lambsquarters
[17] = post-emergence, Postemergence, read-out: Plant response rating (0 to 100), Crabgrass, Large
[18] = pre-emergence, Preemergence, read-out: Plant response rating, Crabgrass, Large
[19] = post-emergence, Postemergence, read-out: Plant response rating (0 to 100), Soybean
[20] = pre-emergence, Preemergence, read-out: Plant response rating, Soybean
[21] = post-emergence, Postemergence, read-out: Plant response rating (0 to 100), Johnsongrass
[22] = pre-emergence, Preemergence, read-out: Plant response rating, Johnsongrass
[23] = post-emergence, Postemergence, read-out: Plant response rating (0 to 100), Foxtail, Giant
[24] = pre-emergence, Preemergence, read-out: Plant response rating, Foxtail, Giant
[25] = post-emergence, Postemergence, read-out: Plant response rating (0 to 100), Morningglory
[26] = pre-emergence, Preemergence, read-out: Plant response rating, Morningglory
[27] = post-emergence, Postemergence, read-out: Plant response rating (0 to 100), Wheat
[28] = pre-emergence, Preemergence, read-out: Plant response rating, Wheat
[29] = post-emergence, Postemergence, read-out: Plant response rating (0 to 100), Nutsedge, Yellow
[30] = pre-emergence, Preemergence, read-out: Plant response rating, Nutsedge, Yellow

CCOC(OCC)(c1ccccc1)c1c[nH]nc1-c1cc(Cl)cc(Cl)c1 [Compound 14, 3-(3,5-dichlorophenyl)-4-(diethoxyphenylmethyl)-1H-pyrazole]
pest or weed control at 62 g/ha (kochia (Kochia scoparia); 62 g ai/ha): 85%
pest or weed control at 125 g/ha (kochia (Kochia scoparia); 125 g ai/ha): 90%
pest or weed control at 250 g/ha (kochia (Kochia scoparia); 250 g ai/ha, scale 0 to 100): 90%
pest or weed control at 500 g/ha (kochia (Kochia scoparia); 500 g ai/ha, scale 0 to 100): 90%
pest or weed control at 62 g/ha ([1]; 62 g ai/ha): 90%
pest or weed control at 125 g/ha ([1]; 125 g ai/ha): 100%
pest or weed control at 250 g/ha ([1]; 250 g ai/ha, scale 0 to 100): 100%
pest or weed control at 500 g/ha ([1]; 500 g ai/ha, scale 0 to 100): 95%
pest or weed control at 62 g/ha (wild oat (Avena fatua); 62 g ai/ha): 0%
pest or weed control at 125 g/ha (wild oat (Avena fatua); 125 g ai/ha): 0%
pest or weed control at 250 g/ha (wild oat (Avena fatua); 250 g ai/ha, scale 0 to 100): 0%
pest or weed control at 500 g/ha (wild oat (Avena fatua); 500 g ai/ha, scale 0 to 100): 5%
pest or weed control at 62 g/ha [2, 11]: 0%
pest or weed control at 125 g/ha [2, 11]: 30%
pest or weed control at 250 g/ha [2, 12]: 50%
pest or weed control at 500 g/ha [2, 12]: 45%
pest or weed control at 62 g/ha [2, 13]: 0%
pest or weed control at 125 g/ha [2, 13]: 60%
pest or weed control at 250 g/ha ([2]; pre-emergence, Preemergence): 80%
pest or weed control at 500 g/ha ([2]; pre-emergence, Preemergence): 0%
pest or weed control at 62 g/ha ([3]; post-emergence, Postemergence, read-out: Plant response rating (0 to 100), Blackgrass): 0%
pest or weed control at 125 g/ha ([3]; post-emergence, Postemergence, scale 0 to 100, read-out: Plant response rating, Blackgrass): 0%
pest or weed control at 250 g/ha [3, 12]: 0%
pest or weed control at 500 g/ha [3, 12]: 0%
pest or weed control at 62 g/ha [3, 14]: 50%
pest or weed control at 125 g/ha [3, 14]: 20%
pest or weed control at 250 g/ha ([3]; pre-emergence, Preemergence): 0%
pest or weed control at 500 g/ha ([3]; pre-emergence, Preemergence): 30%
pest or weed control at 62 g/ha [4, 15]: 70%
pest or weed control at 125 g/ha [4, 15]: 95%
pest or weed control at 250 g/ha [4, 12]: 100%
pest or weed control at 500 g/ha [4, 12]: 100%
pest or weed control at 62 g/ha [4, 16]: 100%
pest or weed control at 125 g/ha [4, 16]: 100%
pest or weed control at 250 g/ha ([4]; pre-emergence, Preemergence): 100%
pest or weed control at 500 g/ha ([4]; pre-emergence, Preemergence): 100%
pest or weed control at 62 g/ha [5, 17]: 0%
pest or weed control at 125 g/ha [5, 17]: 0%
pest or weed control at 250 g/ha [5, 12]: 0%
pest or weed control at 500 g/ha [5, 12]: 0%
pest or weed control at 62 g/ha [5, 18]: 0%
pest or weed control at 125 g/ha [5, 18]: 0%
pest or weed control at 250 g/ha ([5]; pre-emergence, Preemergence): 0%
pest or weed control at 500 g/ha ([5]; pre-emergence, Preemergence): 0%
plant injury at 62 g/ha (soybean (Glycine max); [19]): 0%
plant injury at 125 g/ha (soybean (Glycine max); [19]): 0%
plant injury at 250 g/ha (soybean (Glycine max); [12]): 0%
plant injury at 500 g/ha (soybean (Glycine max); [12]): 0%
plant injury at 62 g/ha (soybean (Glycine max); [20]): 0%
plant injury at 125 g/ha (soybean (Glycine max); [20]): 35%
plant injury at 250 g/ha (soybean (Glycine max); pre-emergence, Preemergence): 40%
plant injury at 500 g/ha (soybean (Glycine max); pre-emergence, Preemergence): 10%
pest or weed control at 62 g/ha [6, 21]: 0%
pest or weed control at 125 g/ha [6, 21]: 0%
pest or weed control at 250 g/ha [6, 12]: 0%
pest or weed control at 500 g/ha [6, 12]: 0%
pest or weed control at 62 g/ha [6, 22]: 0%
pest or weed control at 125 g/ha [6, 22]: 0%
pest or weed control at 250 g/ha ([6]; pre-emergence, Preemergence): 0%
pest or weed control at 500 g/ha ([6]; pre-emergence, Preemergence): 0%
pest or weed control at 62 g/ha [7, 23]: 0%
pest or weed control at 125 g/ha [7, 23]: 0%
pest or weed control at 250 g/ha [7, 12]: 0%
pest or weed control at 500 g/ha [7, 12]: 0%
pest or weed control at 62 g/ha [7, 24]: 0%
pest or weed control at 125 g/ha [7, 24]: 0%
pest or weed control at 250 g/ha ([7]; pre-emergence, Preemergence): 0%
pest or weed control at 500 g/ha ([7]; pre-emergence, Preemergence): 0%
pest or weed control at 62 g/ha [8, 25]: 0%
pest or weed control at 125 g/ha [8, 25]: 0%
pest or weed control at 250 g/ha [8, 12]: 0%
pest or weed control at 500 g/ha [8, 12]: 5%
pest or weed control at 62 g/ha [8, 26]: 0%
pest or weed control at 125 g/ha [8, 26]: 0%
pest or weed control at 250 g/ha ([8]; pre-emergence, Preemergence): 0%
pest or weed control at 500 g/ha ([8]; pre-emergence, Preemergence): 0%
plant injury at 62 g/ha [9, 27]: 0%
plant injury at 125 g/ha [9, 27]: 0%
plant injury at 250 g/ha [9, 12]: 0%
plant injury at 500 g/ha [9, 12]: 5%
plant injury at 62 g/ha [9, 28]: 0%
plant injury at 125 g/ha [9, 28]: 0%
plant injury at 250 g/ha ([9]; pre-emergence, Preemergence): 0%
plant injury at 500 g/ha ([9]; pre-emergence, Preemergence): 0%
pest or weed control at 62 g/ha [10, 29]: 0%
pest or weed control at 125 g/ha [10, 29]: 0%
pest or weed control at 250 g/ha [10, 12]: 0%
pest or weed control at 500 g/ha [10, 12]: 0%
pest or weed control at 62 g/ha [10, 30]: 0%
pest or weed control at 125 g/ha [10, 30]: 0%
pest or weed control at 250 g/ha ([10]; pre-emergence, Preemergence): 0%
pest or weed control at 500 g/ha ([10]; pre-emergence, Preemergence): 0%
